Holding throughout (format): in vivo
Experiment [1] relates to Hamlin orange. Briefly: Fruit pull-force reduction after spraying trees, Hamlin orange. As to conditions: for % reduction in fruit pull force, day 5: day 5, mean. As to the method:
Data are the means of 6 replicate branches, with 10 fruit/branch. Bars above and below the means indicate standard error of the mean.
(§1) Solutions of COR were prepared that contained 200 mg/L or 300 mg/L of COR dissolved in water and 0.125% Kinetic®. The solution was sprayed until “run-off,” typically about 5 L/tree. […] Under field conditions, canopies should not be sprayed if rainfall is anticipated within 24 hours. For comparison purposes, 200 mg/L to 400 mg/L Ethrel® solutions and a 0.125% Kinetic® solution were applied to trees. After several days, usually 3 to 10, differences in fruit pull-force were measured between COR and other treatments and is an indication of fruit loosening ability. […] Differences in fruit drop were also measured by counting or weighing dropped fruit.

Experiment [2] deals with Valencia orange. The experiment can be described thus: Fruit pull-force reduction after spraying trees, Valencia orange. As to conditions: for % reduction in fruit pull force, day 5: 0.125% Kinetic, day 5, mean. As to the method: (§2) Data are the means of 10 replicate branches, with 10 fruit/branch. Bars above and below the means indicate standard error of the mean.
as §1

The subject of experiment [3] is Valencia orange. Briefly: Fruit drop after spraying trees, Valencia orange. Conditions: for % fruit drop, day 5: day 5, mean. As to the method:
as §2, §1

Setting [4] is: COR compositions 200 or 300 mg/L.

This is an account of results in patent US6511939B1, “Coronatine as an abscission agent” (priority 2001, dated 2003).

As for `CC[C@H]1C=C(C(=O)N[C@@]2(C(=O)O)C[C@@H]2CC)[C@H]2CCC(=O)[C@H]2C1` [COR, Coronatine], the “% reduction in fruit pull force, day 5” value in experiment [1] (200 mg/L spray to run-off) turned out to be 55%; in experiment [1] (300 mg/L spray to run-off) it was 55.5%; in experiment [2] (200 mg/L spray to run-off) it was 96.1%; in experiment [2] (300 mg/L spray to run-off), 96.3%. For the same compound, the “reduction of fruit pull-force” value in experiment [1] (setting [4]) and in experiment [2] (setting [4]) was “approximately 95%” in each case. Moreover, the results for the “% fruit drop, day 5” value in experiment [3] (200 mg/L spray to run-off) and in experiment [3] (300 mg/L spray to run-off) were 50% and 63.3%, respectively. Moreover, the “percentage of fruit drop as compared to Ethrel and the control” value in experiment [3] (setting [4]) is reported as “substantially increased”.
`O=P(O)(O)CCCl` [Ethrel ®, 2-chloroethyl phosphonic acid]: the “% reduction in fruit pull force, day 5” value in experiment [1] (200 mg/L spray to run-off) amounted to 64%; in experiment [2] (200 mg/L spray to run-off) it was 71.7%. For the same compound, the “% fruit drop, day 5” value in experiment [3] (200 mg/L spray to run-off) is reported as 13.3%.
